Experimental data as given in ChEMBL document CHEMBL6103592, “Discovery of novel thiazole-pleuromutilin derivatives with potent antibacterial activity” (Eur J Med Chem, 2025).
≈ marks a conversion by molar mass, not a printed value.

Each molecule was assayed on Staphylococcus aureus (assay: Antibacterial activity against methicillin-resistant Staphylococcus aureus ATCC 43300 assessed as inhibition of visible bacterial growth incubated for 24 hrs by CLSI based broth microdilution method).
Type: functional

| SMILES | MIC [µg/mL] |
| --- | --- |
| C=C[C@]1(C)C[C@@H](OC(=O)CSc2nc(OC(=O)CCCCC)cs2)[C@]2(C)[C@H](C)CC[C@]3(CCC(=O)[C@H]32)[C@@H](C)[C@@H]1O | 1 (≈ 1.69 µM) |
| C=C[C@]1(C)C[C@@H](OC(=O)CSc2nc(OC(=O)C3CCCCC3)cs2)[C@]2(C)[C@H](C)CC[C@]3(CCC(=O)[C@H]32)[C@@H](C)[C@@H]1O | 1 (≈ 1.66 µM) |
| C=C[C@]1(C)C[C@@H](OC(=O)CSc2nc(OC(=O)C3CCC3)cs2)[C@]2(C)[C@H](C)CC[C@]3(CCC(=O)[C@H]32)[C@@H](C)[C@@H]1O | 0.5 (≈ 0.868 µM) |
| C=C[C@]1(C)C[C@@H](OC(=O)CSc2nc(OC(=O)CC(C)(C)C)cs2)[C@]2(C)[C@H](C)CC[C@]3(CCC(=O)[C@H]32)[C@@H](C)[C@@H]1O | 0.5 (≈ 0.845 µM) |
| C=C[C@]1(C)C[C@@H](OC(=O)CSc2nc(OC(=O)C3CCCC3)cs2)[C@]2(C)[C@H](C)CC[C@]3(CCC(=O)[C@H]32)[C@@H](C)[C@@H]1O | 1 (≈ 1.7 µM) |

Each molecule was assayed on Staphylococcus aureus (assay: Antibacterial activity against Staphylococcus aureus ATCC 25923 assessed as inhibition of visible bacterial growth incubated for 24 hrs by CLSI based broth microdilution method).
Type: functional

| SMILES | MIC [µg/mL] |
| --- | --- |
| C=C[C@]1(C)C[C@@H](OC(=O)CSc2nc(OC(=O)CCCCC)cs2)[C@]2(C)[C@H](C)CC[C@]3(CCC(=O)[C@H]32)[C@@H](C)[C@@H]1O | 1 (≈ 1.69 µM) |
| C=C[C@]1(C)C[C@@H](OC(=O)CSc2nc(OC(=O)C3CCCCC3)cs2)[C@]2(C)[C@H](C)CC[C@]3(CCC(=O)[C@H]32)[C@@H](C)[C@@H]1O | 1 (≈ 1.66 µM) |
| C=C[C@]1(C)C[C@@H](OC(=O)CSc2nc(OC(=O)C3CCC3)cs2)[C@]2(C)[C@H](C)CC[C@]3(CCC(=O)[C@H]32)[C@@H](C)[C@@H]1O | 1 (≈ 1.74 µM) |
| C=C[C@]1(C)C[C@@H](OC(=O)CSc2nc(OC(=O)CC(C)(C)C)cs2)[C@]2(C)[C@H](C)CC[C@]3(CCC(=O)[C@H]32)[C@@H](C)[C@@H]1O | 0.5 (≈ 0.845 µM) |
| C=C[C@]1(C)C[C@@H](OC(=O)CSc2nc(OC(=O)C3CCCC3)cs2)[C@]2(C)[C@H](C)CC[C@]3(CCC(=O)[C@H]32)[C@@H](C)[C@@H]1O | 2 (≈ 3.39 µM) |

What follows are molecules tested on Enterococcus faecalis (assay: Antibacterial activity against Enterococcus faecalis assessed as inhibition of visible bacterial growth incubated for 24 hrs by CLSI based broth microdilution method).
Type: functional

| SMILES | MIC [µg/mL] |
| --- | --- |
| C=C[C@]1(C)C[C@@H](OC(=O)CSc2nc(OC(=O)CCCCC)cs2)[C@]2(C)[C@H](C)CC[C@]3(CCC(=O)[C@H]32)[C@@H](C)[C@@H]1O | > 32 |
| C=C[C@]1(C)C[C@@H](OC(=O)CSc2nc(OC(=O)C3CCCCC3)cs2)[C@]2(C)[C@H](C)CC[C@]3(CCC(=O)[C@H]32)[C@@H](C)[C@@H]1O | > 32 |
| C=C[C@]1(C)C[C@@H](OC(=O)CSc2nc(OC(=O)C3CCC3)cs2)[C@]2(C)[C@H](C)CC[C@]3(CCC(=O)[C@H]32)[C@@H](C)[C@@H]1O | > 32 |
| C=C[C@]1(C)C[C@@H](OC(=O)CSc2nc(OC(=O)CC(C)(C)C)cs2)[C@]2(C)[C@H](C)CC[C@]3(CCC(=O)[C@H]32)[C@@H](C)[C@@H]1O | > 32 |
| C=C[C@]1(C)C[C@@H](OC(=O)CSc2nc(OC(=O)C3CCCC3)cs2)[C@]2(C)[C@H](C)CC[C@]3(CCC(=O)[C@H]32)[C@@H](C)[C@@H]1O | > 32 |

What follows are molecules tested on Escherichia coli (assay: Antibacterial activity against Escherichia coli ATCC 25922 assessed as inhibition of visible bacterial growth incubated for 24 hrs by CLSI based broth microdilution method).
Type: functional

| SMILES | MIC [µg/mL] |
| --- | --- |
| C=C[C@]1(C)C[C@@H](OC(=O)CSc2nc(OC(=O)CCCCC)cs2)[C@]2(C)[C@H](C)CC[C@]3(CCC(=O)[C@H]32)[C@@H](C)[C@@H]1O | > 32 |
| C=C[C@]1(C)C[C@@H](OC(=O)CSc2nc(OC(=O)C3CCCCC3)cs2)[C@]2(C)[C@H](C)CC[C@]3(CCC(=O)[C@H]32)[C@@H](C)[C@@H]1O | > 32 |
| C=C[C@]1(C)C[C@@H](OC(=O)CSc2nc(OC(=O)C3CCC3)cs2)[C@]2(C)[C@H](C)CC[C@]3(CCC(=O)[C@H]32)[C@@H](C)[C@@H]1O | > 32 |
| C=C[C@]1(C)C[C@@H](OC(=O)CSc2nc(OC(=O)CC(C)(C)C)cs2)[C@]2(C)[C@H](C)CC[C@]3(CCC(=O)[C@H]32)[C@@H](C)[C@@H]1O | > 32 |
| C=C[C@]1(C)C[C@@H](OC(=O)CSc2nc(OC(=O)C3CCCC3)cs2)[C@]2(C)[C@H](C)CC[C@]3(CCC(=O)[C@H]32)[C@@H](C)[C@@H]1O | > 32 |

What follows are molecules tested on Streptococcus agalactiae (assay: Antibacterial activity against Streptococcus agalactiae assessed as inhibition of visible bacterial growth incubated for 24 hrs by CLSI based broth microdilution method).
Type: functional

| SMILES | MIC [µg/mL] |
| --- | --- |
| C=C[C@]1(C)C[C@@H](OC(=O)CSc2nc(OC(=O)CCCCC)cs2)[C@]2(C)[C@H](C)CC[C@]3(CCC(=O)[C@H]32)[C@@H](C)[C@@H]1O | 0.125 (≈ 0.211 µM) |
| C=C[C@]1(C)C[C@@H](OC(=O)CSc2nc(OC(=O)C3CCCCC3)cs2)[C@]2(C)[C@H](C)CC[C@]3(CCC(=O)[C@H]32)[C@@H](C)[C@@H]1O | 0.125 (≈ 0.207 µM) |
| C=C[C@]1(C)C[C@@H](OC(=O)CSc2nc(OC(=O)C3CCC3)cs2)[C@]2(C)[C@H](C)CC[C@]3(CCC(=O)[C@H]32)[C@@H](C)[C@@H]1O | 0.063 (≈ 0.109 µM) |
| C=C[C@]1(C)C[C@@H](OC(=O)CSc2nc(OC(=O)CC(C)(C)C)cs2)[C@]2(C)[C@H](C)CC[C@]3(CCC(=O)[C@H]32)[C@@H](C)[C@@H]1O | 0.125 (≈ 0.211 µM) |
| C=C[C@]1(C)C[C@@H](OC(=O)CSc2nc(OC(=O)C3CCCC3)cs2)[C@]2(C)[C@H](C)CC[C@]3(CCC(=O)[C@H]32)[C@@H](C)[C@@H]1O | 0.25 (≈ 0.424 µM) |

What follows are molecules tested on Mycoplasma (assay: Antibacterial activity against Mycoplasma F3 assessed as inhibition of visible bacterial growth incubated for 24 hrs by CLSI based broth microdilution method).
Type: functional

| SMILES | MIC [µg/mL] |
| --- | --- |
| C=C[C@]1(C)C[C@@H](OC(=O)CSc2nc(OC(=O)CCCCC)cs2)[C@]2(C)[C@H](C)CC[C@]3(CCC(=O)[C@H]32)[C@@H](C)[C@@H]1O | 0.5 (≈ 0.845 µM) |
| C=C[C@]1(C)C[C@@H](OC(=O)CSc2nc(OC(=O)C3CCCCC3)cs2)[C@]2(C)[C@H](C)CC[C@]3(CCC(=O)[C@H]32)[C@@H](C)[C@@H]1O | 0.5 (≈ 0.828 µM) |
| C=C[C@]1(C)C[C@@H](OC(=O)CSc2nc(OC(=O)C3CCC3)cs2)[C@]2(C)[C@H](C)CC[C@]3(CCC(=O)[C@H]32)[C@@H](C)[C@@H]1O | 0.5 (≈ 0.868 µM) |
| C=C[C@]1(C)C[C@@H](OC(=O)CSc2nc(OC(=O)CC(C)(C)C)cs2)[C@]2(C)[C@H](C)CC[C@]3(CCC(=O)[C@H]32)[C@@H](C)[C@@H]1O | 0.25 (≈ 0.422 µM) |
| C=C[C@]1(C)C[C@@H](OC(=O)CSc2nc(OC(=O)C3CCCC3)cs2)[C@]2(C)[C@H](C)CC[C@]3(CCC(=O)[C@H]32)[C@@H](C)[C@@H]1O | 0.25 (≈ 0.424 µM) |
